Earlier results, collected in publication PMC4109836, “Analysis of the co-operative interaction between the allosterically regulated proteins GK and GKRP using tryptophan fluorescence” (Biochemical Journal, 2014).

Key:
GK-W99R/W167F/W257F = target: T1, GK-W99R/W167F/W257F (Homo sapiens, UniProt P35557, W167F/W257F/W99R); parameters: method as in ref 4 (a number printed in a supplementary file, which may have a reference list of its own: not looked up in the article's list); settings: read-out: ATP Km; cited from earlier work
T1 construct: GST (cleaved yes); made in house; host or cells: Escherichia coli
T1 sequence (P35557 1-465 W99R/W167F/W257F): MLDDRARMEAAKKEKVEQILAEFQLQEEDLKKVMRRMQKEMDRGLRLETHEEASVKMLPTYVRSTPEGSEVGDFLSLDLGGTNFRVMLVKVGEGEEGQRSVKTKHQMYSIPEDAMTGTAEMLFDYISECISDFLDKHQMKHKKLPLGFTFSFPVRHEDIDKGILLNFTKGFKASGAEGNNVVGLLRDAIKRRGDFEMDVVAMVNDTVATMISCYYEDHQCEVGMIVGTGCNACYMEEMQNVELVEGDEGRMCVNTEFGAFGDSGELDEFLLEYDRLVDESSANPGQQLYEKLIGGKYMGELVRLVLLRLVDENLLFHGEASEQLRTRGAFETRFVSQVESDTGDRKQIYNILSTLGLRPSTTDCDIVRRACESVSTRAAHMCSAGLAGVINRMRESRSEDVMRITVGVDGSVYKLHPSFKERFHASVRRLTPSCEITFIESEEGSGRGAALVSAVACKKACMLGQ

GK-WT = target: T2, GK-WT (Homo sapiens, UniProt P35557); parameters: method as in ref 4 (a number printed in a supplementary file, which may have a reference list of its own: not looked up in the article's list); settings: read-out: ATP Km; cited from earlier work
T2 construct: GST (cleaved yes); made in house; host or cells: Escherichia coli
T2 sequence (P35557 1-465): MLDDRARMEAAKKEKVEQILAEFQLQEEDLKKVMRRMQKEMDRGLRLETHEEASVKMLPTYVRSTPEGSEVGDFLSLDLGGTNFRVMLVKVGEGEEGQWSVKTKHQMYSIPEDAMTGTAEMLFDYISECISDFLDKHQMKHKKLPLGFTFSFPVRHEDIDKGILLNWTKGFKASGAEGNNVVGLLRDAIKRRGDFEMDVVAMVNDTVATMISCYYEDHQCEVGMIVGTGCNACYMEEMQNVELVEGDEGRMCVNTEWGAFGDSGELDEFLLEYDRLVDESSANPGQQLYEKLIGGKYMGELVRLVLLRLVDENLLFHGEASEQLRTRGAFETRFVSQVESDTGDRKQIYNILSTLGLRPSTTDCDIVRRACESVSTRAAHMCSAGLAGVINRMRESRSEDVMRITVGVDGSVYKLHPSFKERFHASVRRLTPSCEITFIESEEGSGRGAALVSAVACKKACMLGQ

SMILES: Nc1ncnc2c1ncn2[C@@H]1O[C@H](COP(=O)(O)OP(=O)(O)OP(=O)(O)O)[C@@H](O)[C@H]1O [ATP]
- Km (GK-W99R/W167F/W257F): 1960 µM
- Km (GK-WT): 490 µM
